Test system: Raw 264.7 cells
Assay: Inhibition of nitrite production in LPS-stimulated murine macrophages (Griess reaction)
Type: cell-based
Conditions: inhibitors 10 μM, 1 h pretreatment, LPS 10 μg mL−1, 24 h, versus LPS-treated cells
From the text: Finally, to explore the anti-inflammatory potential of the new allosteric PDE10A inhibitors here described, a cell-based assay was used. We have determined differences in nitrite production of Raw 264.7 cells after they were damaged with bacterial lipopolysaccharide (LPS) and treated with selected inhibitors. First, the effect of the compounds on cell viability was examined at various concentrations showing […] significant cytotoxic effect in the present experiments (data not shown).
Figure 4 Raw 264.7 cells were incubated for 24 h with lipopolysaccharide (LPS; 10 μg mL^−1) in the absence or presence of various Phosphodiesterase (PDE) inhibitors (10 μM), and the production of nitrite was evaluated by the Griess reaction. Cells were pretreated with inhibitors for 1 h before lipopolysaccharide (LPS) stimulation. Values represent the mean ± SD from two independent experiments. *: p < 0.05; **: p < 0.01 versus LPS-treated cells.
The content of nitrite, one of the end products of NO oxidation, was monitored by a procedure based on the diazotidation of nitrite by sulfanilic acid (Griess reaction). […] The absorbance (520 nm) of the mixture was measured on a microplate reader. The concentration of nitrite was calculated with the linear equation derived from the standard curve generated by known concentrations of sodium nitrite.

| SMILES | nitrite production |
| --- | --- |
| COc1ccc(-c2n/c(=N/Cc3cccnc3)sn2-c2ccccc2)cc1 [Compound 5] | significantly decreased |
| CC(=O)C1=C(c2c[nH]c3ccccc23)C(=O)NC1=O [Compound 4] | significantly decreased |

Target: T1, human recombinant PDE10A2 (Homo sapiens, UniProt Q9Y233)
T1 construct: These compounds were tested against recombinant human full-length isoenzyme PDE10A; purchased Calbiochem 524739
T1 sequence (Q9Y233 267-1055): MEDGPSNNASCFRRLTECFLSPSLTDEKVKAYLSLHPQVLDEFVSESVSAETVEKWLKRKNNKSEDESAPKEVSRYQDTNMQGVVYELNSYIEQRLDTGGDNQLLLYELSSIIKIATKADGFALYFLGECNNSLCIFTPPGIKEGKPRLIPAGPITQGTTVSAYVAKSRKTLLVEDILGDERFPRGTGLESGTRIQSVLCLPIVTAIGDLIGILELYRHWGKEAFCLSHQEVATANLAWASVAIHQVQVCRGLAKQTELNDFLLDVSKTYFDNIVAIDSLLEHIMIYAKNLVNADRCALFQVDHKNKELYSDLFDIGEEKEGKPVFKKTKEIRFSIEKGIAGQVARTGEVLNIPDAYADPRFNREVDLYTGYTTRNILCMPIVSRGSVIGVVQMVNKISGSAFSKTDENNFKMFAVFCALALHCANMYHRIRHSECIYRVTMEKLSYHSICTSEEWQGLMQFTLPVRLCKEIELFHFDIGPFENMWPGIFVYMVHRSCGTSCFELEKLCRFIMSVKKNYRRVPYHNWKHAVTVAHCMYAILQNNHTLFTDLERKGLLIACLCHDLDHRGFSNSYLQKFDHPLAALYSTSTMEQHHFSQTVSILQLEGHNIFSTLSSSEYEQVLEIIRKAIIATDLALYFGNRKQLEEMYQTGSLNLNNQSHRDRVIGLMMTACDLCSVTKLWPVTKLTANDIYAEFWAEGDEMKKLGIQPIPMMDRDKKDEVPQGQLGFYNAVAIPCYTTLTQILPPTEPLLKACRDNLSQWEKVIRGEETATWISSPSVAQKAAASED
Assay: Radiometric phosphodiesterase inhibition assay (SPA, [3H]cAMP)
Type: biochemical
Conditions: fixed compound concentration of 10 µM; read-out: percentage of inhibition of PDE10A
Experimental: The methodology used for measuring human recombinant PDE10A2 activity was based in a Scintillation Proximity Assay (SPA) from Perkin Elmer (TRKQ7090).
After the incubation time, 50 µL of a solution of SPA-beads (approximately 1 mg per well) were added to each well and the plate was shaken for 1 h at room temperature. Finally, beads were settled for 30 min and radioactivity was detected in a Microbeta Trilux reader (Perkin Elmer, Shelton, CT, USA).
IC50 values were calculated by non-linear regression fitting using the GraphPad Prism. Data (radioactivity vs. log concentration) was fitted to a sigmoidal dose-response equation: Y = Bottom + (Top-Bottom)/(1 + 10^[…]), where Bottom and Top were the minimum and maximal inhibition for PDE, respectively, IC50 was the concentration of the compound that inhibited the PDE activity in a 50%, and n was the slope of the concentration-response curve.

| SMILES | inhibition at 10 µM [%] |
| --- | --- |
| O=C(Cc1ccccc1)Sc1ncnc2[nH]cnc12 [Compound 2] | 40 |
| O=Cc1nc(-c2ccc(Cl)cc2)ns1 [Compound 13] | 15 |
| CC(=O)C1=C(c2c(C)[nH]c3ccccc23)C(=O)NC1=O [Compound 14] | 24 |
| O=C(O)COC(=O)CNC(=O)c1ccccc1 [Compound 3] | 7 |
| CC(=O)NNC(=O)c1c(O)n(C)c2ccccc2c1=O [Compound 10] | 2 |
| O=C(Cc1cccc(Cl)c1)Nc1nc2ccccc2s1 [Compound 11] | 44 |
| O=S1(=O)N=C(O)c2cc(-c3ccccc3)sc2N1 [Compound 12] | 3 |
| Cc1ccc(-n2nc(C(C)(C)C)cc2N)cc1 [Compound 9] | 3 |

Same assay, conditions: recombinant human full-length PDE10A

| SMILES | IC50 [µM] |
| --- | --- |
| CC(=O)C1=C(c2c[nH]c3ncccc23)C(=O)NC1=O [Compound 7] | 8.2 |
| CC(=O)C1=C(c2cn(C)c3ncccc23)C(=O)NC1=O [Compound 15] | 6.5 |
| CC(=O)C1=C(c2cn(C)c3ccccc23)C(=O)NC1=O [Compound 17] | 8.2 |
| CC(=O)C1=C(c2ccc(C#N)cc2)C(=O)NC1=O [Compound 1] | 4.6 |
| COc1ccc(-c2n/c(=N/Cc3cccnc3)sn2-c2ccccc2)cc1 [Compound 5] | 1.8 |
| Cn1cc(C2=C(C(=O)CBr)C(=O)NC2=O)c2ccccc21 [Compound 18] | 2.9 |
| CC(=O)C1=C(c2c[nH]c3ccccc23)C(=O)NC1=O [Compound 4] | 10.2 |
| O=C(CBr)C1=C(c2c[nH]c3ccccc23)C(=O)NC1=O [Compound 16] | 2.4 |

Test system: PDE10A
Assay: not given
Parameters: method as in PMID 21705115
Conditions: reference compound; cited from earlier work

| SMILES | IC50 [µM] |
| --- | --- |
| COc1ccc(Cc2nccc3cc(OC)c(OC)cc23)cc1OC [Papaverine] | 0.019 |
